Assay results taken from US20260028354A1, “TETRAHYDRONAPHTHALENE DERIVATIVES AS ESTROGEN RECEPTOR DEGRADERS” (REGENT OF THE UNIVERSITY OF MICHIGAN, priority 2022, published 2026).
Like-named read-outs stand apart in the source and are kept apart here.

Key:
ER = ER (Homo sapiens (Human), UniProt P03372); experiment: In-cell western blot analysis of ER for "B" compounds; type: cell-based; conditions: 16 hours, read-out: ICW DC50
Outline: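 In-cell western: fixed cells stained with primary antibodies (2 h, RT), then anti-rabbit-680 and anti-mouse-800 secondaries (1:1000, 1 h, RT), imaged on a LI-COR plate reader. Relative ER level in treated wells expressed against untreated and DMSO-treated wells set as 100%.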

[1] = Cell growth assay (WST-8) for "B" compounds; type: cell-based; conditions: T47D, read-out: Cell growth Inhibition in T47D cell line IC50
Outline: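 Cells seeded at 1500/well overnight, then exposed to compounds for 4 days. 10% WST-8 added for 2.5 h at 37 °C and absorbance read at 450 nm. Growth given as absorbance relative to vehicle control, from three repeats.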

Sequence of ER (P03372 whole entry): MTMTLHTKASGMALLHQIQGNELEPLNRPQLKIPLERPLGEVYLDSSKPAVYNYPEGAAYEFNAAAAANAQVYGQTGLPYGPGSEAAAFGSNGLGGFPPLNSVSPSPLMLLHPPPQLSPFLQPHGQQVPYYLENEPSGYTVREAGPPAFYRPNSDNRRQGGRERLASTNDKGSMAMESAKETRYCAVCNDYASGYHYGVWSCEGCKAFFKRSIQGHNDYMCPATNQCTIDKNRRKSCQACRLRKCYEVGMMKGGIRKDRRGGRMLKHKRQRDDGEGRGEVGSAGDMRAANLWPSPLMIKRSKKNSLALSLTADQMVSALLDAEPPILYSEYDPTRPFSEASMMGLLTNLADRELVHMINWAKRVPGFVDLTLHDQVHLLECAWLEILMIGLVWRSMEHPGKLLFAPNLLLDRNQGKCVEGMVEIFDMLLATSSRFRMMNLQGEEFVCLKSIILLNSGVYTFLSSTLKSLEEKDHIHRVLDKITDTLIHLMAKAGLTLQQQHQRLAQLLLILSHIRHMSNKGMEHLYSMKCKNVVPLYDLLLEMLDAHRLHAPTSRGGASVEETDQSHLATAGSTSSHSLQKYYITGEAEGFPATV

Compound	DC50 (ER)	IC50 [1]	IC50 ([1]; T47D cell line)
O=C1CCC(N2Cc3c(ccc4c3OCC43CCN(CC4CC5(CCN(c6ccc([C@@H]7c8ccc(O)cc8CC[C@@H]7c7ccccc7)cc6)CC5)C4)CC3)C2=O)C(=O)N1 (stereo partly drawn) [Compound B313, 3-(1′-((7-(4-((1R,2S)-6-hydroxy-2-phenyl-1,2,3,4-tetrahydronaphthalen-1-yl)phenyl)-7-azaspiro[3.5]nonan-2-yl)methyl)-6-oxo-6,8-dihydro-2H,7H-spiro[furo[2,3-e]isoindole-3,4′-piperidin]-7-yl)piperidine-2,6-dione]	10 to 100 nM	< 1 nM	–
CN(C(=O)c1ccc2c(c1)OC[C@@H]1CN(CC3CC4(CCN(c5ccc([C@@H]6c7ccc(O)cc7CC[C@@H]6c6ccccc6)cc5)CC4)C3)CCN21)C1CCC(=O)NC1=O (stereo partly drawn) [Compound B312, (4aS)-N-(2,6-dioxopiperidin-3-yl)-3-((7-(4-((1R,2S)-6-hydroxy-2-phenyl-1,2,3,4-tetrahydronaphthalen-1-yl)phenyl)-7-azaspiro[3.5]nonan-2-yl)methyl)-N-methyl-1,2,3,4,4a,5-hexahydrobenzo[b]pyrazino[1,2-d][1,4]oxazine-8-carboxamide]	> 100 nM	–	< 1 nM
O=C1CCC(N2Cc3c(ccc4c3OCC43CCN(CC4CCC5(CCN(c6ccc([C@@H]7c8ccc(O)cc8CC[C@@H]7c7ccccc7)cc6)CC5)C4)CC3)C2=O)C(=O)N1 (stereo partly drawn) [Compound B364, 3-(1′-((8-(4-((1R,2S)-6-hydroxy-2-phenyl-1,2,3,4-tetrahydronaphthalen-1-yl)phenyl)-8-azaspiro[4.5]decan-2-yl)methyl)-6-oxo-6,8-dihydro-2H,7H-spiro[furo[2,3-e]isoindole-3,4′-piperidin]-7-yl)piperidine-2,6-dione]	> 100 nM	1 to 10 nM	–
O=C1CCC(N2Cc3c(ccc4c3OCC43CCN(CC(=O)N4CC5(CC(Nc6ccc([C@@H]7c8ccc(O)cc8CC[C@@H]7c7ccccc7)cc6)C5)C4)CC3)C2=O)C(=O)N1 (stereo partly drawn) [Compound B170, 3-(1′-(2-(6-((4-((1R,2S)-6-hydroxy-2-phenyl-1,2,3,4-tetrahydronaphthalen-1-yl)phenyl)amino)-2-azaspiro[3.3]heptan-2-yl)-2-oxoethyl)-6-oxo-6,8-dihydro-2H,7H-spiro[furo[2,3-e]isoindole-3,4′-piperidin]-7-yl)piperidine-2,6-dione]	< 10 nM	< 1 nM	–

Second part, led by results:

DC50 (ER)	Compound	IC50 [1]	IC50 ([1]; T47D cell line)
< 10 nM	O=C1CCC(N2Cc3cc4c(cc3C2=O)OC[C@@H]2CN(CC3CC5(CCN(c6ccc([C@@H]7c8ccc(O)cc8CC[C@@H]7c7ccccc7)cc6)CC5)C3)CCN42)C(=O)N1 (stereo partly drawn) [Compound B211, 3-((S)-3-((7-(4-((1R,2S)-6-hydroxy-2-phenyl-1,2,3,4-tetrahydronaphthalen-1-yl)phenyl)-7-azaspiro[3.5]nonan-2-yl)methyl)-8-oxo-1,2,3,4,4a,5,8,10-octahydro-9H-pyrazino[1′,2′:4,5][1,4]oxazino[2,3-f]isoindol-9-yl)piperidine-2,6-dione]	–	1 to 10 nM
10 to 100 nM	O=C1CCC(N2Cc3c(ccc4c3OC[C@@H]3CN(C(=O)CN5CC(Oc6ccc([C@@H]7c8ccc(O)cc8CC[C@@H]7c7ccccc7)cc6)C5)CCN43)C2=O)C(=O)N1 (stereo partly drawn) [Compound B248, 3-((S)-7-(2-(3-(4-((1R,2S)-6-hydroxy-2-phenyl-1,2,3,4-tetrahydronaphthalen-1-yl)phenoxy)azetidin-1-yl)acetyl)-1-oxo-1,3,5,5a,6,7,8,9-octahydro-2H-pyrazino[1′,2′:4,5][1,4]oxazino[2,3-e]isoindol-2-yl)piperidine-2,6-dione]	–	< 1 nM
> 100 nM	O=C1CCC(N2Cc3cc4c(cc3C2=O)CC2(C4)CN(C[C@@H]3CCN(c4ccc([C@@H]5c6ccc(O)cc6CC[C@@H]5c5ccccc5)cc4)C3)C2)C(=O)N1 (stereo partly drawn) [Compound B217, 3-(1-(((S)-1-(4-((1R,2S)-6-hydroxy-2-phenyl-1,2,3,4-tetrahydronaphthalen-1-yl)phenyl)pyrrolidin-3-yl)methyl)-1′-oxo-5′,7′-dihydro-1'H-spiro[azetidine-3,6′-cyclopenta[f]isoindol]-2'(3'H)-yl)piperidine-2,6-dione]	–	1 to 10 nM
